Assay results published in patent EP0800516B1, “FIBRINOGEN RECEPTOR ANTAGONISTS HAVING SUBSTITUTED (b)-AMINO ACID RESIDUES AND PHARMACEUTICAL COMPOSITIONS COMPRISING THE SAME” (Nippon Steel Corporation, priority 1994, dated 1996).

The compounds below were run on Human Platelet Aggregation (assay: in vitro human platelet aggregation using PRP (collagen-induced, light transmittance)). Details: aggregation induced with collagen (final concentration: 5 µ g/ml), 37°C.
Type: cell-based
Source text: (Measurement of in vitro Human Platelet Aggregation using PRP)
Healthy male volunteers who had not taken any medicines for at least two weeks were selected as subjects. Blood was collected from the forearm vein of each subject on an empty stomach using a #19 needle and a plastic syringe preliminarily charged with 1/10 volume of a 3.8% sodium citrate solution. Immediately after the blood collection, the syringe was shaken gently to mix the blood with the sodium citrate solution. The mixed blood was centrifuged (1100 rpm, 250 g) at room temperature for 15 minutes and the rotation was stopped without applying the brake. Then, the supernatant was collected with a Komagome type pipette to obtain platelet-rich plasma (PRP). The PRP was stored at room temperature. The blood remaining after centrifuging was further centrifuged (3500 rpm, 1500 g) at room temperature for 15 minutes and the rotation was stopped without applying the brake. The supernatant was collected to obtain platelet-poor plasma (PPP). After the preparation of the PRP, the number of platelets was counted and only samples containing more than 2 x 10^8 of platelets per milliliter were subjected to the following experiments.
Platelet aggregation was measured using an 8-channel platelet aggregation measuring instrument (Hematracer, Nikoh Bioscience, Tokyo, Japan) on the basis of the change in light transmittance through the PRP. First, the PPP and PRP (each 200µl) were placed in glass cuvettes and incubated at 37°C . Thereafter, the transmittance was measured. The transmittance of the PPP was determined as 100% and that of the PRP as 0%. Then, 10µl of physiological saline or a sample-containing physiological saline was added to the PRP and incubated at 37°C for one minute. A collagen solution (10 µ l) at a concentration of […] was added (final concentration: 5 µ g/ml) to induce aggregation and thereafter the transmittance was measured over 7 minutes. After aggregation with collagen and ADP was confirmed, only those samples in which the maximum aggregation with collagen was at least 70% were subjected to the experiment.
The sample was dissolved in physiological saline to give a concentration of 2.2 x 10 ^-2 M and a 2-fold dilution series was prepared for use in the experiments. The samples insoluble in the physiological saline were dissolved in physiological saline containing 10% DMSO (dimethyl sulfoxide).
The results were calculated as follows: [formula]
A graph was constructed by plotting the percent aggregation inhibition against the sample concentration and the concentration at which the aggregation was inhibited by 50% (IC50) was calculated from the graph.

Compound	IC50
CC(CC(=O)N1CCC(CC(=O)O)CC1)NC(=O)c1ccc(C(=N)N)cc1 (stereo not drawn) [Comparative Example 2, N-(N-4-amidinobenzoyl-β-methyl-β -alanyl)-4-piperidineacetic acid, reference compound]	50000 nM
N=C(N)c1ccc(C(=O)NC(CC(=O)N2CCC(CC(=O)O)CC2)c2ccccc2)cc1 (stereo not drawn) [Comparative Example 3, N-(N-4-amidinobenzoyl-β-phenyl-β -alanyl)-4-piperidineacetic acid, reference compound]	5200 nM
CCC(CNC(=O)c1ccc(C(=N)N)cc1)C(=O)N1CCC(CC(=O)O)CC1 (stereo not drawn) [Comparative Example 4, N-(N-4-amidinobenzoyl-α-ethyl-β -alanyl)-4-piperidineacetic acid, reference compound]	890 nM
CCC(C(=O)N1CCC(CC(=O)O)CC1)C(NC(=O)c1ccc(C(=N)N)cc1)c1ccccc1 (stereo not drawn) [Comparative Example 5, N-(N-4-amidinobenzoyl-β-phenyl-α -ethyl-β-alanyl)-4-piperidineacetic acid, reference compound]	16000 nM
CCC(C(=O)N1CCC(CC(=O)O)CC1)C(/C=C/c1ccccc1)NC(=O)c1ccc(C(=N)N)cc1 (stereo not drawn) [Comparative Example 6, N-(N-4-amidinobenzoyl-β-trans-styryl-α-ethyl-β-alanyl)-4-piperidineacetic acid, reference compound]	85000 nM
CC(C)C(CNC(=O)c1ccc(C(=N)N)cc1)C(=O)N1CCC(CC(=O)O)CC1 (stereo not drawn) [Comparative Example 7, N-(N-4-amidinobenzoyl-α-isopropyl-β-alanyl)-4-piperidineacetic acid, reference compound]	17000 nM
CC(C)C(C(=O)N1CCC(CC(=O)O)CC1)C(NC(=O)c1ccc(C(=N)N)cc1)c1ccccc1 (stereo not drawn) [Comparative Example 8, N-(N-4-amidinobenzoyl-β-phenyl-α -isopropyl-β-alanyl)-4-piperidineacetic acid, reference compound]	82000 nM
CC(C)C(C(=O)N1CCC(CC(=O)O)CC1)C(/C=C/c1ccccc1)NC(=O)c1ccc(C(=N)N)cc1 (stereo not drawn) [Comparative Example 9, N-(N-4-amidinobenzoyl-β-trans-styryl-α-isopropyl-β-alanyl)-4-piperidineacetic acid, reference compound]	90000 nM
CC(C(=O)N1CCC(CC(=O)O)CC1)C(NC(=O)c1ccc(C(=N)N)cc1)c1ccccc1 (stereo not drawn) [Comparative Example 10, N-(N-4-amidinobenzoyl-β-phenyl-α-methyl-β-alanyl)-4-piperidineacetic acid, reference compound]	16000 nM
CC(C)(CNC(=O)c1ccc(C(=N)N)cc1)C(=O)N1CCC(CC(=O)O)CC1 [Example 1, N-(N-4-amidinobenzoyl-α,α-dimethyl-β-alanyl)-4-piperidineacetic acid]	570 nM
CC(C)(C(=O)N1CCC(CC(=O)O)CC1)C(NC(=O)c1ccc(C(=N)N)cc1)c1ccccc1 (stereo not drawn) [Example 2, N-(N-4-amidinobenzoyl-β-phenyl-α,α-dimethyl-β-alanyl)-4-piperidineacetic acid]	190 nM
CCC(NC(=O)c1ccc(C(=N)N)cc1)C(C)(C)C(=O)N1CCC(CC(=O)O)CC1 (stereo not drawn) [Example 3, N-(N-4-Amidinobenzoyl-β-ethyl-α,α-dimethyl-β-alanyl)-4-piperidineacetic acid]	84 nM
CCCC(NC(=O)c1ccc(C(=N)N)cc1)C(C)(C)C(=O)N1CCC(CC(=O)O)CC1 (stereo not drawn) [Example 4, N-(N-4-amidinobenzoyl-β-n-propyl-α,α-dimethyl-β-alanyl)-4-piperidineacetic acid]	89 nM
CC(C)C(NC(=O)c1ccc(C(=N)N)cc1)C(C)(C)C(=O)N1CCC(CC(=O)O)CC1 (stereo not drawn) [Example 5, N-(N-4-amidinobenzoyl-β-isopropyl-α,α-dimethyl-β-alanyl)-4-piperidineacetic acid]	190 nM
CCCCC(NC(=O)c1ccc(C(=N)N)cc1)C(C)(C)C(=O)N1CCC(CC(=O)O)CC1 (stereo not drawn) [Example 6, N-(N-4-amidinobenzoyl-β-normal-butyl-α,α-dimethyl-β-alanyl)-4-piperidineacetic acid]	84 nM
CCCCCC(NC(=O)c1ccc(C(=N)N)cc1)C(C)(C)C(=O)N1CCC(CC(=O)O)CC1 (stereo not drawn) [Example 7, N-(N-4-amidinobenzoyl-β-normal-pentyl-α,α -dimethyl-β-alanyl)-4-piperidineacetic acid]	170 nM
COc1ccc(C(NC(=O)c2ccc(C(=N)N)cc2)C(C)(C)C(=O)N2CCC(CC(=O)O)CC2)cc1 (stereo not drawn) [Example 8, N-(N-4-amidinobenzoyl-β-p-methoxyphenyl-α, α-dimethyl-β-alanyl)-4-piperidineacetic acid]	250 nM

Compound	IC50
CC(C)(C(=O)N1CCC(CC(=O)O)CC1)C(NC(=O)c1ccc(C(=N)N)cc1)c1cccc(Cl)c1 (stereo not drawn) [Example 9, N-(N-4-amidinobenzoyl-β-m-chlorophenyl-α,α -dimethyl-β-alanyl)-4-piperidineacetic acid]	180 nM
CC(C)(C(=O)N1CCC(CC(=O)O)CC1)C(NC(=O)c1ccc(C(=N)N)cc1)c1ccc(F)cc1 (stereo not drawn) [Example 10, N-(N-4-amidinobenzoyl-β-p-fluorophenyl-α, α-dimethyl-β-alanyl)-4-piperidineacetic acid]	230 nM
CC(C)(C(=O)N1CCC(CC(=O)O)CC1)C(CCc1ccccc1)NC(=O)c1ccc(C(=N)N)cc1 (stereo not drawn) [Example 11, N-(N-4-amidinobenzoyl-β-phenethyl-α,α-dimethyl-β-alanyl)-4-piperidineacetic acid]	160 nM
CC(C)(C(=O)N1CCC(CC(=O)O)CC1)C(CC1CCCCC1)NC(=O)c1ccc(C(=N)N)cc1 (stereo not drawn) [Example 12, N-(N-4-amidinobenzoyl-β-cyclohexylmethyl-α, α-dimethyl-β-alanyl)-4-piperidineacetic acid]	170 nM
CC(C)(C(=O)N1CCC(CC(=O)O)CC1)C(NC(=O)c1ccc(C(=N)N)cc1)c1ccoc1 (stereo not drawn) [Example 13, N-(N-4-amidinobenzoyl-β-(3-furyl)-α,α-dimethyl-β-alanyl)-4-piperidineacetic acid]	270 nM
CC(C)(C(=O)N1CCC(CC(=O)O)CC1)C(C=Cc1ccccc1)NC(=O)c1ccc(C(=N)N)cc1 (stereo not drawn) [Example 14, N-(N-4-amidinobenzoyl-β-styryl-α,α-dimethyl-β-alanyl)-4-piperidineacetic acid]	460 nM
CC(C)(C(=O)N1CCC(CC(=O)O)CC1)C(NC(=O)c1ccc(C(=N)N)cc1)C1CCNCC1 (stereo not drawn) [Example 15, N-(N-4-amidinobenzoyl-β-(4-piperidyl)-α, α-dimethyl-β-alanyl)-4-piperidineacetic acid]	180 nM
CC(C)(C(=O)N1CCC(CC(=O)O)CC1)C(NC(=O)c1ccc(C(=N)N)cc1)c1ccc2ccccc2c1 (stereo not drawn) [Example 16, N-(N-4-amidinobenzoyl-β-(2-naphthyl)-α,α -dimethyl-β-alanyl)-4-piperidineacetic acid]	330 nM
CC(C)(C(=O)N1CCC(CC(=O)O)CC1)C(NC(=O)c1ccc(C(=N)N)cc1)C1CC1 (stereo not drawn) [Example 17]	180 nM
CCCCNC(=N)c1ccc(C(=O)NC(c2cccc(Cl)c2)C(C)(C)C(=O)N2CCC(CC(=O)O)CC2)cc1 (stereo not drawn) [Example 18]	1000 nM
CN(C(=O)c1ccc(C(=N)N)cc1)C(c1ccccc1)C(C)(C)C(=O)N1CCC(CC(=O)O)CC1 (stereo not drawn) [Example 21, N-(N-4-amidinobenzoyl-N-methyl-β-phenyl-α, α-dimethyl-β-alanyl)-4-piperidineacetic acid]	330 nM
CC(NC(=O)c1ccc(C(=N)N)cc1)C(C)(C)C(=O)N1CCC(CC(=O)O)CC1 (stereo not drawn) [Example 22, N-(N-4-amidinobenzoyl-β-methyl-α,α-dimethyl-β-alanyl)-4-piperidineacetic acid]	520 nM
CC(C)(C(=O)N1CCN(CC(=O)O)CC1)C(NC(=O)c1ccc(C(=N)N)cc1)c1ccccc1 (stereo not drawn) [Example 23, N-(N-4-amidinobenzoyl-β-phenyl-α,α-dimethyl-β-alanyl)-4-piperazineacetic acid]	620 nM
CC(C)CC(NC(=O)c1ccc(C(=N)N)cc1)C(C)(C)C(=O)N1CCC(CC(=O)O)CC1 (stereo not drawn) [Example 24, N-(N-4-amidinobenzoyl-β-i-butyl-α,α-dimethyl-β-alanyl)-4-piperidineacetic acid]	80 nM
CC(C)(C(=O)N1CCC(CC(=O)O)CC1)C(NC(=O)c1ccc(C(=N)N)cc1)c1ccc(Cl)cc1 (stereo not drawn) [Example 25, N-(N-4-amidinobenzoyl-β-p-chlorophenyl-α,α -dimethyl-β-alanyl)-4-piperidineacetic acid]	480 nM
COc1ccccc1C(NC(=O)c1ccc(C(=N)N)cc1)C(C)(C)C(=O)N1CCC(CC(=O)O)CC1 (stereo not drawn) [Example 26, N-(N-4-amidinobenzoyl-β-o-methoxyphenyl-α, α-dimethyl-β-alanyl)-4-piperidineacetic acid]	340 nM
